Patent publication US20160066603A1, “FULVIC ACID AND DERIVATIVES AND METHODS OF PREPARATION AND USE” (EMPIRE TECHNOLOGY DEVELOPMENT LLC, priority 2013, published 2016)

Assay type: physicochemical
Procedure: The degradation products of Example 1, recovered after three hours of hydrolysis, were evaluated as antioxidants and thermal stabilizers for PVC, low density polyethylene (LDPE), and polyvinyl alcohol (PVA) to evaluate the anti-oxidation efficiency using thermal analysis techniques (DSC, TGA, and DTG). The thermooxidative enthalpy change from DSC curves (e.g. FIGS. 1-3) and the % of HCl loss as a function of temperature represent the stability of polyethylene and PVC respectively.
The mechanism of stabilizing PVC is based on capturing the evolved HCl from dehydrochlorination by the metal ions and the transition metal, accordingly deactivating the catalytic role of HCl in the thermal decomposition.

For fulvic acid, the “Stability compared with the PVC control polymer” value was “more stable than the PVC control polymer”.
